Experimental data: patent US11685744B2, “CDK inhibitors and their use as pharmaceuticals” (Prelude Therapeutics, Incorporated, priority 2020, dated 2023)

How the values were obtained:
[1] = target: CDK4/Cyclin D1 (Homo sapiens (Human), UniProt P11802); test: CDK4/CyclinD1 enzymatic activity assay (TR-FRET); assay type: biochemical; conditions: ATP 2 mM, read-out: CDK4_D1 IC50
Protocol: CDK4/CyclinD1 Enzymatic Activity Assay
The inhibitory activity of compounds was evaluated in vitro using TR-FRET assay with white 384-well low volume microplate (Greiner Bio-One). CDK4/Cyclin D1 catalyzed phosphorylation of peptide in the presence and absence of compounds was measured. IC50 determination. Recombinant protein complex CDK4/Cyclin D1, expressed from insect cell, was purchased from ProQinase. Testing compounds were dissolved in DMSO at 0.1 mM and tested in 9-dose IC50 mode. The reaction mixture was prepared by mixing CDK4/CyclinD1 (1 nM final), ULight-4E-BP1 (100 nM final, Perkinelmer, TRF0128-D), and ATP (2 mM final) in assay buffer (20 mM of HEPES pH 7.4, 1 mM of EGTA, 0.05% BSA, 0.005% Tween 20, and 1 mM TCEP). The compound of interest in DMSO was added to each well in 3-fold serial dilution by dispenser (TECAN D300E). After 20 minutes preincubation at room temperature, MgCl2 (10 mM final) was added to initiate the reaction. Following a 60 minutes incubation at 37° C., the reaction was stopped by addition of 2 μL of quenching buffer consisting of Lance detection buffer (Perkinelmer CR97-100C), 2 nM LANCE Ultra Europium-anti-P-4E-BP1 (Perkinelmer, TRF0216-D), 10 mM EDTA, and incubate at room temperature for additional 60 minutes in dark. The reaction signal was measured by Envision multimode plate reader (PerkinElmer, 2102-0010). IC50 values were determined by fitting the data to the standard 4 parameters with Hill Slope using GraphPad Prism software.

[2] = tested on: MCF7 adenocarcinoma cell line; test: Cell proliferation studies in MCF7 cells (ATP-Lite, 10 days); assay type: cell-based; conditions: Homo sapiens, 240 h, read-out: PROLIFERATION_CTG_MCF7 IC50
Protocol: Cell Proliferation Studies in MCF7 Cells
Cell proliferation studies were conducted in MCF7 adenocarcinoma cell line. Cells were maintained in DMEM (Coming, Catalog #: 10-013-CV) supplemented with 10% v/v FBS (Gibco, Catalog #: 26140-079), 1% v/v Penicillin Streptomycin (Gibco, Catalog #15140-122) Cells were seeded in 384-well plates at a density of 100 or 200 cells/well. Compounds dissolved in DMSO were plated in quadruplicate using a digital dispenser (D300E, Tecan) and tested on a 9-point 3-fold serial dilution. Cells were incubated for 10 days in a 37° C. active humidified incubator at 5% CO2. A media exchange and second compound addition were performed on day 5. Cell viability was measured using the ATP-Lite 1-Step Luminescence reagent (Perkin Elmer, Catalog #: 6016731) as per manufacturer's instructions. Luminescence signal was measured with a multimode plate reader (Envision 2105, Perkin Elmer). Raw data files were imported to Dotmatics Screening Ultra for IC50 analysis. Luminescence values were normalized to both background and DMSO controls to obtain a percentage of viable cells relative to DMSO vehicle control.

CDK4/Cyclin D1, sequence (P11802 whole entry): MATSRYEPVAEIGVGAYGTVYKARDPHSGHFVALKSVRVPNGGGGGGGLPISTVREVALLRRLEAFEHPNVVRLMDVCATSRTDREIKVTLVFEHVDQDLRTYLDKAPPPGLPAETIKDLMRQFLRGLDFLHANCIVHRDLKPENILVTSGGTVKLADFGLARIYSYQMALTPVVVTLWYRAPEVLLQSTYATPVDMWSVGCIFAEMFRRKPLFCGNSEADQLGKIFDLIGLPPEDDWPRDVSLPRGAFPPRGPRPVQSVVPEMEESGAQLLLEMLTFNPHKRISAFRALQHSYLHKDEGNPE
CDK4/Cyclin D1, sequence (P24385 whole entry partner): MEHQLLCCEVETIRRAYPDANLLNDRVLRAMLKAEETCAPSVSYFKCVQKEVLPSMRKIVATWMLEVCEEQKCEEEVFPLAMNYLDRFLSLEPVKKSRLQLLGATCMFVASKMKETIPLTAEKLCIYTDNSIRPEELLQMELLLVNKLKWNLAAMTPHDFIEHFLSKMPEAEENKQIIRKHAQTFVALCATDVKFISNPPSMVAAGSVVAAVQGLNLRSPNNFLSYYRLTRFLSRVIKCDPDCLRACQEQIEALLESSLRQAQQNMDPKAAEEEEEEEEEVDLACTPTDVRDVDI

| SMILES | IC50 [1] [nM] | IC50 [2] [nM] |
| --- | --- | --- |
| CCN1CCC(c2ccc(Nc3ncc(F)c(-c4sc5c(nc(C)n5C5CCCC5)c4C)n3)nc2)CC1 [Example 5, 4-(3-Cyclopentyl-2,6-dimethyl-3H-thieno[2,3-d]imidazol-5-yl)-N-(5-(1-ethylpiperidin-4-yl)pyridin-2-yl)-5-fluoro-pyrimidin-2-amine] | 20 to 200 | 20 to 200 |
| Cc1c(-c2nc(Nc3ccc(C4CCN(C)CC4)cn3)ncc2F)sc2c1nc(C)n2C1CCCC1 [Example 6, 4-(3-Cyclopentyl-2,6-dimethyl-3H-thieno[2,3-d]imidazol-5-yl)-5-fluoro-N-(5-(1-methylpiperidin-4-yl)pyridin-2-yl)pyrimidin-2-amine] | ≤ 20 | 20 to 200 |
| Cc1c(-c2nc(Nc3ccc(N4CCN(C)CC4)cn3)ncc2F)sc2c1nc(C)n2C1CCCC1 [Example 7, 4-(3-Cyclopentyl-2,6-dimethyl-3H-thieno[2,3-d]imidazol-5-yl)-5-fluoro-N-(5-(4-methyl-piperazin-1-yl)pyridin-2-yl)pyrimidin-2-amine] | ≤ 20 | 20 to 200 |
| CCN1CCN(Cc2ccc(Nc3ncc(F)c(-c4sc5c(nc(C)n5C5CCC5)c4C)n3)nc2)CC1 [Example 10, 4-(3-Cyclobutyl-2,6-dimethylthieno[2,3-d]imidazol-5-yl)-N-[5-[(4-ethylpiperazin-1-yl)methyl]pyridin-2-yl]-5-fluoropyrimidin-2-amine] | ≤ 20 | 200 to 2000 |
| Cc1c(-c2nc(Nc3ccc(N4CCC(F)(F)C4)cn3)ncc2F)sc2c1nc(C)n2C1CCCC1 [Example 11, 4-(3-Cyclopentyl-2,6-dimethyl-3H-thieno[2,3-d]imidazol-5-yl)-N-(5-(3,3-difluoropyrrolidin-1-yl)pyridin-2-yl)-5-fluoro-pyrimidin-2-amine] | 20 to 200 | 200 to 2000 |
| CCN1CCN(Cc2ccc(Nc3ncc(F)c(-c4sc5c(nc(C)n5C5CCCC5)c4C)n3)nc2)CC1 [Example 12, 4-(3-Cyclopentyl-2,6-dimethyl-3H-thieno[2,3-d]imidazol-5-yl)-N-(5-((4-ethylpiperazin-1-yl)methyl)pyridin-2-yl)-5-fluoropyrimidin-2-amine] | 200 to 2000 |  |
| CCN1CC2(C1)CN(c1ccc(Nc3ncc(F)c(-c4cc5nccc(C6CCCC6)c5s4)n3)nc1)C2 [Example 15, 4-(7-Cyclopentylthieno[3,2-b]pyridin-2-yl)-N-[5-(6-ethyl-2,6-diazaspiro[3.3]heptan-2-yl)pyridin-2-yl]-5-fluoropyrimidin-2-amine] | ≤ 20 |  |
| Cc1c(-c2nc(Nc3ccc(N4CCNCC4)cn3)ncc2F)sc2c(C3CCCC3)ccnc12 [Example 35, 4-(7-Cyclopentyl-3-methylthieno[3,2-b]pyridin-2-yl)-5-fluoro-N-(5-(piperazin-1-yl)pyridin-2-yl)pyrimidin-2-amine] | ≤ 20 |  |
| Cc1nc2cc(-c3nc(Nc4ccc(CN5CCC(C(=O)N(C)C)C5)cn4)ncc3F)sc2n1C(C)C (stereo not drawn) [Example 65, 1-[[6-[[5-Fluoro-4-(2-methyl-3-propan-2-ylthieno[2,3-d]imidazol-5-yl)pyrimidin-2-yl]amino]pyridin-3-yl]methyl]-N,N-dimethylpyrrolidine-3-carboxamide] | 20 to 200 |  |
| Cc1c(-c2nc(Nc3ccc(N4CC5(CN(C)CC5(F)F)C4)cn3)ncc2F)sc2c1nc(C)n2C(C)C [Example 70, N-[5-(5,5-Difluoro-7-methyl-2,7-diazaspiro[3.4]octan-2-yl)pyridin-2-yl]-4-(2,6-dimethyl-3-propan-2-ylthieno[2,3-d]imidazol-5-yl)-5-fluoropyrimidin-2-amine] | ≤ 20 |  |
| Cc1c(-c2nc(Nc3ccc(N4CCC5(CCN(C)C5)C4)cn3)ncc2F)sc2c(C(C)C)cn(C)c(=O)c12 (stereo not drawn) [Example 76, 2-(5-Fluoro-2-((5-(7-methyl-2,7-diazaspiro[4.4]nonan-2-yl)pyridin-2-yl)amino)pyrimidin-4-yl)-7-isopropyl-3,5-dimethylthieno[3,2-c]pyridin-4(5H)-one] | ≤ 20 |  |
| CCN1CC2(C1)CN(c1ccc(Nc3ncc(F)c(-c4sc5c(C6CC6)n(C)nc5c4C)n3)nc1)C2 [Example 101, 4-(3-Cyclopropyl-2,6-dimethyl-2H-thieno[3,2-c]pyrazol-5-yl)-N-(5-(6-ethyl-2,6-diazaspiro[3.3]heptan-2-yl)pyridin-2-yl)-5-fluoropyrimidin-2-amine] | 20 to 200 |  |
| CCN1CCN(c2ccc(Nc3ncc(F)c(-c4sc5c(C(C)=O)n(C)nc5c4C)n3)nc2)CC1 [Example 103, 1-(5-(2-((5-(4-ethylpiperazin-1-yl)pyridin-2-yl)amino)-5-fluoropyrimidin-4-yl)-2,6-dimethyl-2H-thieno[3,2-c]pyrazol-3-yl)ethan-1-one] | 200 to 2000 |  |
| CCN1CCN(c2ccc(Nc3ncc(F)c(-c4sc5c(C(C)O)n(C)nc5c4C)n3)nc2)CC1 (stereo not drawn) [Example 104, 1-(5-(2-((5-(4-Ethylpiperazin-1-yl)pyridin-2-yl)amino)-5-fluoropyrimidin-4-yl)-2,6-dimethyl-2H-thieno[3,2-c]pyrazol-3-yl)ethan-1-ol] | 20 to 200 |  |

Now from value to compound:

| IC50 [1] [nM] | IC50 [2] [nM] | SMILES |
| --- | --- | --- |
| ≤ 20 | 200 to 2000 | Cc1c(-c2nc(Nc3ccc(C4CC[C@H]5CN(C)C(=O)CN45)cn3)ncc2F)sc2c1nc(C)n2C(C)C (single isomer, unassigned) [Example 118] |
| 200 to 2000 |  | CCN1CCN(c2ccc(Nc3ncc(F)c(-c4sc5c(C(C)C)nn(C)c5c4C)n3)nc2)CC1 [Example 106, 4-(1,6-Dimethyl-3-propan-2-ylthieno[3,2-c]pyrazol-5-yl)-N-[5-(4-ethylpiperazin-1-yl)pyridin-2-yl]-5-fluoropyrimidin-2-amine] |
| 20 to 200 |  | Cc1nc2cc(-c3nc(Nc4cccnn4)ncc3F)sc2n1C(C)C [Example 107, N-(5-Fluoro-4-(3-isopropyl-2-methyl-3H-thieno[2,3-d]imidazol-5-yl)pyrimidin-2-yl)pyridazin-3-amine] |
| 200 to 2000 |  | CN1CCC(c2ccc(Nc3ncc(F)c(-c4cc5c(=O)n(C)nc(C67CC(F)(C6)C7)c5s4)n3)nc2)CC1 [Example 110, 2-(5-Fluoro-2-((5-(1-methylpiperidin-4-yl)pyridin-2-yl)amino)pyrimidin-4-yl)-7-(3-fluorobicyclo[1.1.1]pentan-1-yl)-5-methylthieno[2,3-d]pyridazin-4(5H)-one] |
| 200 to 2000 |  | CCN1CCN(c2cccc(Nc3ncc(F)c(-c4sc5c(nc(C)n5C(C)C)c4C)n3)n2)CC1 [Example 113, 4-(2,6-Dimethyl-3-propan-2-ylthieno[2,3-d]imidazol-5-yl)-N-[6-(4-ethylpiperazin-1-yl)pyridin-2-yl]-5-fluoropyrimidin-2-amine] |
| ≤ 20 |  | CCN1CCN(C(C)c2ccc(Nc3ncc(F)c(-c4cc5nc(C)n(C(C)C)c5s4)n3)nc2)CC1 (stereo not drawn) [Example 116, N-[5-[1-(4-Ethylpiperazin-1-yl)ethyl]pyridin-2-yl]-5-fluoro-4-(2-methyl-3-propan-2-ylthieno[2,3-d]imidazol-5-yl)pyrimidin-2-amine] |
| ≤ 20 |  | Cc1nc2cc(-c3nc(Nc4ccc(C5C(=O)N(C)CCN5C)cn4)ncc3F)sc2n1C(C)C (stereo not drawn) [Example 117, 3-[6-[[5-Fluoro-4-(2-methyl-3-propan-2-ylthieno[2,3-d]imidazol-5-yl)pyrimidin-2-yl]amino]pyridin-3-yl]-1,4-dimethylpiperazin-2-one] |
| 200 to 2000 |  | CCN1CCN(c2ccnc(Nc3ncc(F)c(-c4sc5c(nc(C)n5C(C)C)c4C)n3)c2)CC1 [Example 119, 4-(2,6-Dimethyl-3-propan-2-ylthieno[2,3-d]imidazol-5-yl)-N-[4-(4-ethylpiperazin-1-yl)pyridin-2-yl]-5-fluoropyrimidin-2-amine] |
| 20 to 200 |  | CCN1CCN(c2ccc(Nc3ncc(F)c(-c4sc5c(C(C)C)ccnc5c4C#N)n3)nc2)CC1 [Example 122, 2-(2-((5-(4-Ethylpiperazin-1-yl)pyridin-2-yl)amino)-5-fluoropyrimidin-4-yl)-7-isopropylthieno[3,2-b]pyridine-3-carbonitrile] |
| 20 to 200 |  | COc1cnc(Nc2ccc(C3CCN(C)CC3)cn2)nc1-c1cc2nc(C)n(C(C)C)c2s1 [Example 127, 4-(3-Isopropyl-2-methyl-3H-thieno[2,3-d]imidazol-5-yl)-5-methoxy-N-(5-(1-methylpiperidin-4-yl)pyridin-2-yl)pyrimidin-2-amine] |
